Reference: ChEMBL document CHEMBL3046929, “Ethyl 4-[2-(6-Methyl-3-pyridyloxy)butyloxy]benzoate, a novel anti-juvenile hormone agent” (2003)
Calls of active or inactive are those of the source. No cut-off for these calls is given here.

Tests used:
Bombyx mori [1] = assay: Anti-juvenile activity against newly molted third-instar larval stage of Bombyx mori Shunrei x shougetsu reared on artificial diet assessed as induction of precocious pupation at 100 ug; type: functional, organism-based
Bombyx mori [2] = assay: Anti-juvenile activity against newly molted fourth-instar larval stage of Bombyx mori Shunrei x shougetsu reared on artificial diet assessed as induction of precocious pupation at 100 ug; type: functional, organism-based
Bombyx mori [3] = assay: Anti-juvenile activity against newly molted third-instar larval stage of Bombyx mori Shunrei x shougetsu reared on artificial diet assessed as blackening of cuticle measured after third ecdysis; type: functional, organism-based
Bombyx mori [4] = assay: Anti-juvenile activity against newly molted fourth-instar larval stage of Bombyx mori Shunrei x shougetsu reared on artificial diet assessed as induction of precocious metamorphosis in presence of 20-hydroxyecdysone; type: functional
Bombyx mori [5] = assay: Anti-juvenile activity against newly molted third-instar larval stage of Bombyx mori Shunrei x shougetsu reared on artificial diet assessed as induction of precocious metamorphosis in presence of 20-hydroxyecdysone; type: functional
Bombyx mori [6] = assay: Anti-juvenile activity against newly molted fourth-instar larval stage of Bombyx mori Shunrei x shougetsu reared on artificial diet assessed as induction of precocious metamorphosis in presence of juvenile hormone agonist methoprene; type: functional
Bombyx mori [7] = assay: Anti-juvenile activity against newly molted third-instar larval stage of Bombyx mori Shunrei x shougetsu reared on artificial diet assessed as induction of precocious metamorphosis in presence of juvenile hormone agonist methoprene; type: functional
Bombyx mori [8] = assay: Anti-juvenile activity against newly molted third-instar larval stage of Bombyx mori Shunrei x shougetsu reared on artificial diet assessed as induction of precocious pupation at 1 to 100 ug/larva; type: functional, organism-based
Bombyx mori [9] = assay: Anti-juvenile activity against newly molted fourth-instar larval stage of Bombyx mori Shunrei x shougetsu reared on artificial diet assessed as induction of precocious pupation; type: functional, organism-based
Bombyx mori [10] = assay: Anti-juvenile activity against newly molted third-instar larval stage of Bombyx mori Shunrei x shougetsu reared on artificial diet assessed as induction of precocious metamorphosis at 100 ug/larva relative to control; type: functional
Bombyx mori [11] = assay: Anti-juvenile activity against newly molted third-instar larval stage of Bombyx mori Shunrei x shougetsu reared on artificial diet assessed as induction of precocious metamorphosis at 10 ug/larva relative to control; type: functional
Bombyx mori [12] = assay: Anti-juvenile activity against newly molted third-instar larval stage of Bombyx mori Shunrei x shougetsu reared on artificial diet assessed as induction of precocious metamorphosis at 1 ug/larva relative to control; type: functional
Bombyx mori [13] = assay: Anti-juvenile activity against newly molted third-instar larval stage of Bombyx mori Shunrei x shougetsu reared on artificial diet assessed as mortality at 100 ug/larva relative to control; type: functional

| Compound | Activity (Bombyx mori [1]) | Activity (Bombyx mori [2]) | Activity (Bombyx mori [11]) [%] | other results |
| --- | --- | --- | --- | --- |
| CCC(COc1cccc(Cl)c1)Oc1ccc(C)nc1 (stereo unspecified) | inactive | inactive | – | – |
| CCOC(=O)c1ccc(OCC(CC)Oc2ccc(C)nc2)cc1 (stereo unspecified) | – | – | 40 | Activity (Bombyx mori [3]): Active; Activity (Bombyx mori [4]): 84%; Activity (Bombyx mori [5]): 90%; Activity (Bombyx mori [6]): 0%; Activity (Bombyx mori [7]): 0%; Activity (Bombyx mori [8]): inactive; Activity (Bombyx mori [9]): inactive; Activity (Bombyx mori [10]): 83%; Activity (Bombyx mori [12]): 0% |
| CCC(COc1ccc(Cl)cc1)Oc1ccc(C)nc1 (stereo unspecified) | inactive | inactive | – | – |
| CCOC(=O)c1cccc(OCC(CC)Oc2ccc(C)nc2)c1 (stereo unspecified) | inactive | inactive | – | – |
| CCOC(=O)c1ccc(OCC(CC)OC(=O)C(C)(C)C)cc1 (stereo unspecified) | – | – | 23 | Activity (Bombyx mori [9]): inactive; Activity (Bombyx mori [10]): 0%; Activity (Bombyx mori [12]): 0% |
| CCc1ccc(OCC(CC)Oc2ccc(C)nc2)cc1 (stereo unspecified) | inactive | inactive | – | – |
| Cc1ccc(OCCOc2cccc(Cl)c2)cn1 | – | – | 0 | mortality (Bombyx mori [13]): 100% |
| CCc1cccc(OCC(CC)Oc2ccc(C)nc2)c1 (stereo unspecified) | inactive | inactive | – | – |
